The structures appear in SMILES notation.

Assay [1] deals with HEK293 cells. Kind of assay: Tunicamycin assay using an autophagy or proteasome inhibitor. The class given is cell-based. The conditions noted are these: pre-incubation 16 h, tunicamycin 5.0 μg/mL 48 h. On the procedure: (§1) Cellular protein aggregates are often cleared by cellular mechanisms, such as autophagy and ubiquitin-proteasome system. To examine the importance of these proteolytic pathways in the activity of compounds 1 and 6, their ability to inhibit tunicamycin-induced cytotoxicity in the presence of an autophagy or proteasome inhibitor (bafilomycin A1 or MG132, respectively) was measured. FIG. 9 is a graph showing the results of a tunicamycin assay using an autophagy or proteasome inhibitor. Cells were pre-incubated with compound 1 or compound 6 for 16 hours and then treated with tunicamycin (5.0 μg/mL) in the presence or absence of a specified substance for 48 hours. FIG. 9(A) is a graph showing measurements in the presence or absence of bafilomycin A1 (Baf A1, autophagy inhibitor). FIG. 9(B) is a graph showing measurements in the presence or absence of MG132 (proteasome inhibitor). Error bars represent s.d. (n=3). Statistical analysis was performed according to the one-way ANOVA and Dunnett's test. *P<0.05; n.s.: not significant. […] The concentrations used of the inhibitors were confirmed to be non-toxic to cells (FIGS. 31 and 32). To further study the role of autophagy, autophagy-deficient atg7^−/− and p62^−/− mouse embryonic fibroblasts (MEFs) were subjected to a tunicamycin assay. FIG. 10 is a graph showing the results of the tunicamycin assay using the autophagy-deficient cells. Wild-type (wt), atg7^−/−, or p62^−/− mouse embryonic fibroblasts (MEFs) were treated with molecule 1 (100 μM) or molecule 6 (25 μM) for 18 hours and then incubated with tunicamycin (5.0 μg/mL) for 48 hours. Error bars represent s.d. (n=3). Statistical analysis was performed according to the one-way ANOVA and Dunnett's test. *P<0.05, **P<0.01. ATG7 is an E1-like enzyme important for phagophore expansion, and p62 is an autophagy receptor for ubiquitinated substrates (Reference Material 20 below). Wild-type (wt), atg7^−/−, or p62^−/− MEF cells were treated with compound 1 or compound 6 for 18 hours, followed by treatment with tunicamycin (5.0 μg/mL) for 48 hours. […] Nat Rev Mol Cell Bio 2018, 19 (6), 349-364. https://doi.org/10.1038/s41580-018-0003-4.

Assay [2] relates to mouse embryonic fibroblasts (MEFs). The assay is described as follows: Tunicamycin assay using autophagy-deficient cells. The class given is cell-based. The conditions noted are these: for Rescue from ER stress-induced cell death: wild-type MEFs, compound 1 100 μM, compound 6 25 μM, 18 h, tunicamycin 5.0 μg/mL 48 h. The procedure:
as §1

Assay [3] relates to CHOP. The assay is described as follows: Quantitative RT-PCR of ER stress-related genes, CHOP. The conditions noted are these: pretreatment 10 h, tunicamycin 1.0 μg/mL 24 h. The format is cell-based. On the procedure:
First, total RNA was isolated using ISOGEN (tradename of Nippon Gene Co., Ltd.). cDNA was prepared using a Prime Script (trade name) first-strand cDNA synthesis kit (TaKaRa). qRT-PCR was performed with Fast SYBR Green Master Mix (Thermo Fisher) on a QuantStudio 3 real-time PCR system (Thermo Fisher). The copy number of each transcript is expressed relative to β-actin. The sequences of the primers (forward and reverse) are as follows: […]
The ability to alleviate endoplasmic reticulum (ER) stress of compound 1 was examined in HEK293 cells. FIGS. 1 and 2 show the biological activity of compound 1 for decreasing cytotoxicity under ER stress. […] Error bars represent s.d. (n=3). Statistical analysis was performed according to one-way ANOVA and a Dunnett's test using R software. […] To further study the effect of compound 1 on ER stress, mRNA levels of typical UPR genes, such as ATF4, s-XPB1, CHOP, BiP, and ERDJ4, were examined. In addition to compound 1, compound 6 was also tested in the same experiment. […] The quantitative RT-PCR was performed according to the method described above. HEK293 cells were treated with compound 1 (100 μM) for 10 hours and then incubated with tunicamycin (1.0 μg/mL) for 24 hours. Isolated RNA samples were subjected to reverse transcription and quantitative RT-PCR. […]

Assay [4] relates to caspase 3. Kind of assay: Western blotting of TGF-β2-induced caspase activation in iFECD. The conditions noted are these: TGF-β2 stimulated iFECD. The class given is cell-based, human. The procedure:
In order to collect floating cells and dead cells, the medium was collected on ice, and the solution resulting from washing cells with 1×PBS(−) twice was also collected and centrifuged at 4° C. at 800 g for 12 minutes, followed by discarding the supernatant, thereby obtaining a precipitate. Proteins were extracted from the washed cells by adding a protein extraction buffer (RIPA; 50 mM Tris-HCl (pH of 7.4), 150 mM NaCl, 1 mM EDTA, 0.1% SDS, 0.5% DOC, 1% NP-40) on ice. Thereafter, the precipitate obtained after centrifugation of the floating cells and dead cells was suspended together and extracted. The collected liquid was pulverized in cold water for 30 seconds three times with an ultrasonic device (BIORUPTOR, Tosho Denki) and then centrifuged at 4° C. at 15000 rpm for 10 minutes to collect the protein supernatant.
5 to 8 μg of the extracted proteins were separated by SDS-PAGE and transferred to a nitrocellulose membrane. The primary antibodies used were rabbit anti-Caspase 3 antibody (Cell Signaling, 9662), rabbit anti-PARP antibody (Cell Signaling, 9542), and mouse anti-GAPDH antibody (MBL, M171-3). […] The intensity of the detected bands was analyzed using a LAS-4000mini lumino image analyzer (Fujifilm) and ImageQuant™ software (GE Healthcare).

Take `NS(=O)(=O)c1ccc(Nc2ccn3c(n2)nc(=O)c2sc4cc(F)ccc4c23)cc1` [compound 1]: in assay [1], the “Activity in the presence of MG132” value is on record as “no significant effect” and the “Activity in the presence of bafilomycin A1” value was “partially canceled”. The “Ability to rescue from ER stress-induced cell death” value (shortened to “Ability to rescue”) in assay [2] (atg7−/− MEFs) is listed as “severely impaired”. Moreover, the “Ability to rescue” value in assay [2] (p62−/− MEFs) is given as “severely impaired”. Also, the “Rescue from ER stress-induced cell death” value in assay [2] is listed as “rescued”. Also, the “Increase in CHOP mRNA levels” value in assay [3] is “completely suppressed”. Moreover, in assay [4], the “Cleaved active caspase 3 (about 17 kDa)” value is given as “hardly detected”.
Regarding `COc1ccc2c(c1)sc1c(=O)nc3nc(Nc4ccc(S(N)(=O)=O)cc4)ccn3c12` [compound 6], in assay [1], the “Activity in the presence of MG132” value was “no significant effect” and the “Activity in the presence of bafilomycin A1” value is “partially canceled”. The “Ability to rescue” value in assay [2] (atg7−/− MEFs) is listed as “severely impaired”. The “Ability to rescue” value in assay [2] (p62−/− MEFs) is listed as “severely impaired”. Also, the “Rescue from ER stress-induced cell death” value in assay [2] was “rescued”. Besides, the “Increase in CHOP mRNA levels” value in assay [3] was “completely suppressed”. The “Cleaved active caspase 3 (about 17 kDa)” value in assay [4] is “hardly detected”.

The values above are taken from US20260070921A1, “COMPOUND, ENDOPLASMIC RETICULUM STRESS INHIBITOR, PHARMACEUTICAL PRODUCT, OPHTHALMIC AGENT, EYE DROPS, COMPOSITION, AND METHOD FOR PRODUCING COMPOUND” (KYOTO UNIVERSITY, priority 2022, published 2026).
